Test results from US8193362B2 (Syngenta Crop Protection LLC, priority 2008, dated 2012).

Assays:
Assay type in all cases: in vivo
[1] = tested on: Heliothis virescens (Tobacco Budworm); assay: Heliothis virescens egg test on artificial diet in 24-well microtiter plate; conditions: 96 h, 200 ppm (concentration in well 18 ppm), eggs 0-24 h old, 4 days, egg mortality, larval mortality, growth regulation
Procedure: (§1) Heliothis virescens (Tobacco Budworm):
Eggs (0-24 h old) were placed in 24-well microtiter plate on artificial diet and treated with test solutions at an application rate of 200 ppm (concentration in well 18 ppm) by pipetting. After an incubation period of 4 days, samples were checked for egg mortality, larval mortality and growth regulation.

[2] = tested on: Diabrotica balteata (Corn Root Worm); assay: Diabrotica balteata L2 larvae test on artificial diet in 24-well microtiter plate; conditions: 120 h, 200 ppm (concentration in well 18 ppm), 5 days, larval mortality, growth regulation
Procedure: Diabrotica balteata (Corn Root Worm):
A 24-well microtiter plate (MTP) with artificial diet was treated with test solutions at an application rate of 200 ppm (concentration in well 18 ppm) by pipetting. After drying, the MTP's were infested with larvae (L2) (6-10 per well). After an incubation period of 5 days, samples were checked for larval mortality, and growth regulation.

[3] = tested on: Spodoptera littoralis (Egyptian Cotton Leafworm); assay: Spodoptera littoralis cotton leaf disc spray test; conditions: foliar, 72 h, 200 ppm spray on cotton leaf discs, L1 larvae, mortality, feeding behavior, growth regulation 3 DAT
Source text: Spodoptera littoralis (Egyptian Cotton Leafworm)
Cotton leaf discs were placed on agar in a 24-well microtiter plate and sprayed with test solutions at an application rate of 200 ppm. After drying, the leaf discs were infested with 5 L1 larvae. The samples were checked for mortality, feeding behavior, and growth regulation 3 days after treatment (DAT).

[4] = tested on: Plutella xylostella (Diamond Back Moth); assay: Plutella xylostella L2 larvae test on artificial diet in 24-well microtiter plate; conditions: 144 h, 200 ppm (concentration in well 18 ppm), 6 days, larval mortality, growth regulation
Procedure: Plutella xylostella (Diamond Back Moth):
A 24-well microtiter plate (MTP) with artificial diet was treated with test solutions at an application rate of 200 ppm (concentration in well 18 ppm) by pipetting. After drying, the MTP's were infested with L2 larvae (7-12 per well). After an incubation period of 6 days, samples were checked for larval mortality and growth regulation.

[5] = tested on: Heliothis virescens (Tobacco Budworm); assay: Comparative Heliothis virescens egg test in petri dishes on artificial diet; conditions: 144 h, 6 days incubation, read-out: percentage of dead larvae; for pest or weed control at 0.8 ppm: concentration 0.8 ppm; for pest or weed control at 1.5 ppm: concentration 1.5 ppm; for pest or weed control at 3 ppm: concentration 3 ppm; for pest or weed control at 6 ppm: concentration 6 ppm
Procedure: This Example illustrates the pesticidal/insecticidal properties of compounds of formula (I) compared to Comparative Compound A and Comparative Compound B. Comparative Compound A and Comparative Compound B were disclosed in WO 2006/003494.
as §1
Fresh eggs (0-24 h old) on filterpaper were placed in petri dishes on top of a layer of artificial diet and treated with diluted test solutions by pipetting. After an incubation period of 6 days, samples were checked for larval mortality and growth regulation. The percentage of dead larvae was assessed.

| Compound | pest or weed control at 200 ppm [1] [%] | pest or weed control at 200 ppm [2] [%] | pest or weed control at 200 ppm [3] [%] | pest or weed control at 200 ppm [4] [%] | pest or weed control at 0.8 ppm [5] [%] | pest or weed control at 1.5 ppm [5] [%] | pest or weed control at 3 ppm [5] [%] | pest or weed control at 6 ppm [5] [%] |
| --- | --- | --- | --- | --- | --- | --- | --- | --- |
| O=C(Nc1cc(F)c(Br)nc1C1CCN(C/C=C/c2ccc(Cl)cc2)CC1)c1ccnc(Cl)c1 [Compound D3, N-{6-bromo-1′-[(E)-3-(4-chloro-phenyl)-allyl]-5-fluoro-1′,2′,3′,4′,5′,6′-hexahydro-[2,4]bipyridinyl-3-yl}-2-chloro-isonicotinamide] | ≥ 80 | ≥ 80 | ≥ 80 | ≥ 80 | 100 | 100 | 100 | 100 |
| O=C(Nc1cc(Cl)c(Br)nc1C1CCN(C/C=C/c2ccc(Cl)cc2)CC1)c1ccnc(Cl)c1 [Compound E7, N-{6-bromo-1′-[(E)-3-(4-chloro-phenyl)-allyl]-5-chloro-1′,2′,3′,4′,5′,6′-hexahydro-[2,4′]bipyridinyl-3-yl}-2-chloro-isonicotinamide] | ≥ 80 | ≥ 80 | ≥ 80 | ≥ 80 | 100 | 100 | 100 | 100 |
| O=C(Nc1cc(C(F)(F)F)c(Cl)nc1C1CCN(C/C=C/c2ccc(Cl)cc2)CC1)c1ccnc(Cl)c1 [Compound F2, 2-chloro-N-{6-chloro-1′-[(E)-3-(4-chloro-phenyl)-allyl]-5-trifluoromethyl-1′,2′,3′,4′,5′,6′-hexahydro-[2,4′]bipyridinyl-3-yl}-isonicotinamide] | ≥ 80 | ≥ 80 | ≥ 80 | ≥ 80 | 100 | 100 | 100 | 100 |
| O=C(Nc1cc(C(F)(F)F)c(Br)nc1C1CCN(C/C=C/c2ccc(Cl)cc2)CC1)c1ccnc(Cl)c1 [Compound G1, 2-chloro-N-{6-bromo-1′-[(E)-3-(4-chloro-phenyl)-allyl]-5-trifluoromethyl-1′,2′,3′,4′,5′,6′-hexahydro-[2,4′]bipyridinyl-3-yl}-isonicotinamide] | ≥ 80 | ≥ 80 | ≥ 80 | ≥ 80 | 100 | 100 | 100 | 100 |
